The nature of the data set: Pharmacokinetics study in rats after intravenous administration. It is filed as in vivo. As to conditions: male, Sprague-Dawley, rat, intravenous 10 mg/kg, plasma. The method, then:
Six male Sprague–Dawley rats weighing 200 ± 10 g were obtained from the Laboratory Animal Center of Jinzhou Medical University. Approval of the study protocols was obtained from the Institutional Animal Ethics Committee before the commencement of the studies. Toddalolactone was administered intravenously into the tail vein at a dose of 10 mg/kg, and 0.5 mL of blood was collected through orbital venous plexus at 0, 0.25, 0.5, 0.75, 1, 2, 4, 6 and 8 h after toddalolactone administration and centrifuged at 2000 g for 5 min at 4 °C to obtain the plasma samples. The plasma (0.1 mL) was mixed with 200 μL acetonitrile, the mixture was vortexed for 30 s and then centrifuged at 20,000 g for 20 min and the supernatant was collected and analyzed by HPLC.
After intravenous administration of toddalolactone, blood samples were collected and the concentration of toddalolactone in plasma was determined. The mean plasma concentrations of toddalolactone versus time profiles are depicted in Figure 13. The pharmacokinetic (PK) parameters such as AUC0–t, t1/2, Tmax and Cmax were calculated by a noncompartmental method using the DAS 3.1 software package (Jiangxi University of Traditional Chinese Medicine, Nanchang, China).

Each structure is given as a SMILES string.

A word on the Tmax: it is the time from dosing to the highest level. As a reminder, the AUC(0-t) is the area under the concentration-time curve up to a stated or last time point. A higher AUC(0-t) goes with more exposure. Usually Cmax stands for the maximum level reached in the sampled fluid or tissue.

Consider `COc1cc2oc(=O)ccc2c(OC)c1C[C@@H](O)C(C)(C)O` [toddalolactone], for which the time to peak (Tmax) amounted to 15 min. The same molecule displayed an AUC(0-t) (0–8 h) of 460 ng·h/mL. The molecule also came in with a Cmax (mean of six) of 420 ng/mL. Also, where the note is “read-out: elimination t1/2 (converted)”, the half-life was 63 min.

Values taken from paper PMC9367672, “In vitro differences in toddalolactone metabolism in various species and its effect on cytochrome P450 expression” (Pharmaceutical Biology, 2022).
